For the assay, the system named is HT-29-MTX intestinal cells. Briefly: IL-10 secretion by intestinal cells. Format: cell-based. To be noted: cells treated with cisplatin alone; FIG. 3. The text has this:
IL-10 secretion peaked between 24-48 hrs and preceded mucin secretion (72-96 hr).

Each structure is given as a SMILES string.

The values below come from US20240091149A1, “COMPOSITIONS AND METHODS FOR IMPROVING GASTROINTESTINAL ABSORPTION OF ELECTROLYTES” (IGH NATURALS, INC., priority 2020, published 2024).

Turning to `N.N.[Cl][Pt][Cl]` [cisplatin], the IL-10 secretion entry is recorded as “secreted more IL-10”.
